Measurements published in patent US20210222177A1, “THERAPEUTIC AGENT FOR CARTILAGE-RELATED DISEASE” (ONO PHARMACEUTICAL CO., LTD., priority 2018, published 2021).

Tested on: Normal human knee joint chondrocytes
Assay: Evaluation of chondrocyte differentiation promoting action (chondrocyte pellet culture)
Type: cell-based
Details: ASO final concentration 1000 nmol/L with calcium chloride 9 mmol/L, pellet-cultured for 10 days, versus Vehicle group
Procedure: Normal human knee joint chondrocytes (Lonza Walkersville, Inc.) were thawed and cultured (culture conditions; 5% CO2, 37° C., 95% Air, the same conditions applies hereafter.) in a subculture medium (DMEM/F-12+glutaMAX, included in set of chondrocyte addition factors (Lonza Walkersville, Inc.)). Diluted subculture was performed after subconfluent, and two days after subculture, the culture was treated with antisense oligonucleotides against SIK2 and SIK3 (hereinafter SIK2 ASO; ACAACAACTGCACTTT (SEQ ID NO: 1) and SIK3 ASO; GGTTAGTGCCACGTTG (SEQ ID NO: 6)) in the presence of calcium chloride (9 mmol/L) (final concentration 1000 nmol/L). […] Chondrocyte pellets were imaged using Opera Phenix High Content Screening System (PerkinElmer), and pellet size (area of the pellet image) was calculated using an attached analysis software Harmony. The chondrocyte pellets after imaging were frozen in liquid nitrogen, crushed using AUTOMILL (Tokken, inc.), and then total RNA was extracted using RNeasy Plus Mini Kit (QIAGEN N.V.). cDNA was synthesized from a total RNA solution using High Capacity cDNA Reverse Transcription Kit, and expression level of each gene was measured by real-time polymerase chain reaction (PCR) method using TaqMan Fast Universal PCR Master Mix (2×) (Life Technologies Corporation) and Primer-Probe (COL2A1 assay ID: Hs01060345_m1, COL1A2 assay ID: Hs01028970_m1) of each gene. […]

Substance: SIK2 ASO: SIK2 antisense oligonucleotide, ACAACAACTGCACTTT (SEQ ID NO: 1) (listed as DNA, chemistry not given here)
- cartilage differentiation markers COL2A1/COL1A2 (real-time PCR, FIG. 2): increased
- chondrocyte pellet size (area of the pellet image) (t-test, FIG. 1): significantly increased
